Experiment [1] relates to platelet aggregation. Kind of experiment: Platelet aggregation inhibitory activity (ex vivo) after oral administration. It is filed as in vivo. The following applies: Cavia porcellus, guinea pig, oral 0.1 mg/kg, ADP 10 μg/ml. How it is done: A canula for collecting blood was inserted into the left common carotid artery of a guinea pig which was anesthetized with pentobarbital (30 mg/kg, i.p.). The blood (1 ml) was taken with a syringe containing 1/10 volume of 3.8% sodium citrate (Kettin-citrate, manufactured by Kokusai Shiyaku Ltd.), and the platelet aggregation ability thereof was measured (as a value before administration). Then, a test compound was orally administered to the guinea pig at a dose of 0.1 mg/kg in a volume of 5 ml/kg, and the blood was collected periodically likewise at 0.5, 1, 2, 4 and 6 hours after the administration of the test compound, and the platelet aggregation ability thereof was measured.
The determination of the platelet aggregation ability was carried out by turbidimetry using a Hematracer (Niko Bioscience) as follows. That is, the blood was centrifuged at 4500 rpm at room temperature for 10 seconds, and the supernatant was considered as platelet rich plasma (PRP), and the precipitate was centrifuged at 11000 rpm for two minutes and its supernatant was considered as platelet poor plasma (PPP), and the photo-transmittance of the PRP and the PPP was adjusted to 0%, and 100%, respectively. A cubet containing PRP (200 μl) was inserted to a measurement well, and […] at 1000 rpm at 37° C. for two minutes, and thereto was added a platelet aggregator; ADP (adenosine diphosphate, Sigma Ltd., 20 μl, final concentration; 10 μg/ml), and the maximum aggregation rate was measured. From the maximum aggregation rate before the administration of the test compound (MAR control) and the maximum aggregation rate after the administration of the test compound (MAR sample), the platelet aggregation inhibitory rate of each test compound was estimated according to the following equation.
Inhibitory rate (%)=(1-(MAR sample/MAR control))×100
The periodical change in the platelet aggregation inhibitory rate of each test compound at a dose of 0.1 mg/kg of oral administration is shown in Table 5.

Experiment [2] deals with platelet aggregation. Description: Platelet aggregation inhibitory activity (ADP-induced, human platelet rich plasma). It is filed as cell-based. As to conditions: Homo sapiens. As to the method:
The blood was collected from the elbow vein of a normal volunteer with mixing thereof with 1/10 volume of 3.8% sodium citrate, and the blood was centrifuged at 1000 rpm (150 g) for 10 minutes to give the supernatant as platelet rich plasma (PRP). To PRP (200 μl) was added a test compound solution (2 μl), and the mixture was incubated with stirring at 1000 rpm at 37° C. for two minutes, and thereto was added a platelet aggregator, adenosine diphosphate (ADP, 22 μl) at a final concentration of 3 μg/ml. The platelet aggregation activity was determined by nephelometric analysis using a Hematracer (manufactured by Niko Bioscience, Ltd.). The test results of platelet aggregation inhibitory activity are expressed by IC50, which is a concentration of the test compound being required to inhibit the platelet aggregation reaction by 50%.
The compounds of Examples 18 to 70 were tested in the same manner as in Example 17.
The compounds of Examples 72 to 116 were tested in the same manner as in Example 17.

Setting [3] is: 0.5 hr, read-out: platelet aggregation inhibitory rate (%), 0.5 hr.
[4] abbreviates: 1 hr, read-out: platelet aggregation inhibitory rate (%), 1 hr.
The mark [5] stands for this setting: 2 hrs, read-out: platelet aggregation inhibitory rate (%), 2 hrs.
Setting [6] is: 4 hrs, read-out: platelet aggregation inhibitory rate (%), 4 hrs.
The mark [7] stands for this setting: 6 hrs, read-out: platelet aggregation inhibitory rate (%), 6 hrs.
[8] abbreviates: Table 3, same manner as Example 17.

pIC50: −log10 of the molar value. Like-named read-outs stand apart in the source and are kept apart here.

On to `N=C(N)c1ccc(CCCCC(=O)NC[C@H](NS(=O)(=O)c2ccccc2)C(=O)O)cc1` [Example 67], for which the inhibition in vivo at 0.1 mg/kg in the experiment with platelet aggregation [1] (setting [3]) is 88%; with platelet aggregation [1] (setting [4]) it was 71%; in the experiment on platelet aggregation [1] (setting [5]) it was 69%; in the experiment on platelet aggregation [1] (setting [6]), 31%; in the experiment with platelet aggregation [1] (setting [7]) it was 10%. Also, the pIC50 (usually the IC50 on a negative log10 scale, so that one unit is a factor of ten) with platelet aggregation [2] (Table 2, same manner as Example 17) was 7.49.

Take `CNC(=N)c1ccc(C(=O)NCCC(=O)NC[C@H](NS(=O)(=O)c2ccccc2)C(=O)O)cc1` [Example 98, (2S)-2-benzenesulfonylamino-3-(3-(4-(N-methylamidino)benzoylamino)propanoylamino)propanoic Acid]: the inhibition in vivo at 0.1 mg/kg in the experiment with platelet aggregation [1] (setting [3]) was 94%; in the experiment with platelet aggregation [1] (setting [4]) it was 100%; with platelet aggregation [1] (setting [5]) it was 100%; in the experiment on platelet aggregation [1] (setting [6]), 100%; with platelet aggregation [1] (setting [7]), 100%. This molecule also gave a pIC50 with platelet aggregation [2] (setting [8]) of 7.24.

For `CCNC(=N)c1ccc(C(=O)NCCC(=O)NC[C@H](NS(=O)(=O)c2ccccc2)C(=O)O)cc1` [Example 99, (2S)-2-benzenesulfonylamino-3-(3-(4-(N-ethylamidino)benzoylamino)propanoylamino)propanoic Acid], the inhibition in vivo at 0.1 mg/kg with platelet aggregation [1] (setting [3]), in the experiment with platelet aggregation [1] (setting [4]), in the experiment on platelet aggregation [1] (setting [5]), with platelet aggregation [1] (setting [6]) and in the experiment with platelet aggregation [1] (setting [7]) was 100% each time. For the same molecule, the pIC50 in the experiment on platelet aggregation [2] (setting [8]) is 7.77.

As for `CN(C)C(=N)c1ccc(C(=O)NCCC(=O)NC[C@H](NS(=O)(=O)c2ccccc2)C(=O)O)cc1` [Example 100, (2S)-2-benzenesulfonylamino-3-(3-(4-(N,N-dimethylamidino)benzoylamino)propanoylamino)propanoic Acid], the inhibition in vivo at 0.1 mg/kg in the experiment with platelet aggregation [1] (setting [3]), in the experiment with platelet aggregation [1] (setting [4]), with platelet aggregation [1] (setting [5]), in the experiment on platelet aggregation [1] (setting [6]) and in the experiment on platelet aggregation [1] (setting [7]) was 100% throughout. In addition, the pIC50 with platelet aggregation [2] (setting [8]) was 7.55.

The molecule `CNC(=N)c1ccc(OCCCC(=O)NC[C@H](NS(=O)(=O)c2ccccc2)C(=O)O)cc1` [Example 107, (2S)-2-benzenesulfonylamino-3-(4-(4-(N-methylamidino)phenoxy)butanoylamino)propanoic Acid] showed a pIC50 in the experiment on platelet aggregation [2] (setting [8]) of 7.54.

As to `CCNC(=N)c1ccc(OCCCC(=O)NC[C@H](NS(=O)(=O)c2ccccc2)C(=O)O)cc1` [Example 108, (2S)-2-benzenesulfonylamino-3-(4-(4-(N-ethylamidino)phenoxy)butanoylamino)propanoic Acid], in the experiment on platelet aggregation [2] (setting [8]), the pIC50 is 7.29.

In the experiment with platelet aggregation [2] (setting [8]), `N=C1NCCc2cc(OCCCC(=O)NC[C@H](NS(=O)(=O)c3ccccc3)C(=O)O)ccc21` [Example 111, (2S)-2-benzenesulfonylamino-3-(4-(6-(1-imino-1,2,3,4-tetrahydroisoquinolyl)oxy)butanoylamino)propanoic Acid] showed a negative logarithm of the IC50 (pIC50) of 7.39.

In the experiment with platelet aggregation [2] (setting [8]), `CC(C)(C)C(=O)OCOC(=O)[C@H](CNC(=O)CCCOc1ccc(C(=N)N)cc1)NS(=O)(=O)c1ccccc1` [Example 113, (2S)-3-(4-(4-amidinophenoxy)butanoylamino)-2-benzenesulfonylaminopropanoicAcid Pivaloyloxymethyl Ester] had a pIC50 of 7.32.

Turning to `NC(=O)c1ccc(C(=O)NCCC(=O)NC[C@H](NS(=O)(=O)c2ccccc2N)C(=O)O)cc1` [Example 114, (2S)-2-(2-amino)benzenesulfonylamino-3-(3-(4-carbamoylbenzoylamino)propanoylamino)propanoic Acid], the pIC50 in the experiment with platelet aggregation [2] (setting [8]) is 7.46.

As for `CCc1ccc(S(=O)(=O)N[C@@H](CNC(=O)CCNC(=O)c2ccc(C(=N)N)cc2)C(=O)OCOC(=O)C(C)(C)C)cc1` [Example 116, (2S)-3-(3-(4-amidinobenzoylamino)propanoylamino)-2-(4-ethyl)benzenesulfonylaminopropanoic Acid Pivaloyloxymethyl Ester], in the experiment on platelet aggregation [2] (setting [8]), the pIC50 was 6.99.
